Measured values: US12102619B2 (Jazz Pharmaceuticals Research UK Limited, priority 2020, dated 2024)
Read-outs that look alike come from different tables or passages of the source.

Assays:
[1] = coadministered P-gp and CYP3A4 inhibitor; cited from earlier work
[2] = clinical; conditions: human, in vivo, 5 mg
Text: The duration of the trial was approximately 9 weeks, which includes a screening period (up to 4 weeks), a treatment period (18 days) and a safety follow-up period (2 weeks). After signing the informed consent form (ICF), participants enter the screening period (Day −28 to −1). On Day −1, screened participants who continued to meet eligibility criteria were admitted to the clinical research unit (CRU) at approximately […] and enrolled into the trial. On Day 1, participants received everolimus, 30 minutes after starting a standard meal. […] On Day 18, participants were discharged from the CRU once all assessments were completed.
The time of the meal consumed at the site during days of IMP administration was recorded, as was the dose and dosing time of IMP (as appropriate) relative to sampling times.
Log transformed Cmax, AUC(0-∞), and AUC(0-t) parameters for everolimus were analyzed using a linear mixed-effects model with a fixed effect for treatment and a random effect for participant. The treatment differences are back transformed to present the ratios of geometric means and the corresponding 90% confidence intervals (CIs).

[3] = target: CYP3A4 (Homo sapiens, UniProt P08684); conditions: oral dose of midazolam coadministered; cited from earlier work
[4] = cited from earlier work
[5] = once-daily dosing; cited from earlier work
[6] = Clinical DDI study of steady-state CBD with orally dosed midazolam (GWEP17028); type: in vivo; conditions: CBD at steady-state (750 mg bid, fed state), dosed concomitantly
Text: The everolimus label contains no instructions to adjust the dose when administered with a P-gp inhibitor that is not also a moderate or strong CYP3A4 inhibitor.

[7] = Steady state AUC of CBD by daily dose; conditions: human, in vivo
Text: In some embodiments, the AUCt1-t2 is reported as a geometric mean (% coefficient of variation).

[8] = Adverse effects of elevated CBD levels; type: in vivo
Text: Transaminase can lead to hepatic dysfunction, including unexplained nausea, vomiting, right upper quadrant abdominal pain, fatigue, anorexia, or jaundice and/or dark urine. Elevated exposure of everolimus exposure is known to cause non-infectious pneumonitis, infections, severe hypersensitivity to reactions, angioedema, stomatitis, renal failure, impaired wound healing, metabolic disorders, myelosuppression, risk of infection or reduced immune response with vaccination, embryo-fetal toxicity, and stomatis, respiratory tract infection. The methods of the disclosure reduce the incidence of one or more of the above side effects.

[9] = target: P-gp (Homo sapiens, UniProt P08183); assay: P-gp substrate status of the CBD metabolite; type: in vitro ADME
Text: (§1) The pharmacological properties of CBD are not fully elucidated. […] 7-COOH-CBD is an inhibitor of transport mediated via BCRP and BSEP at clinically relevant concentrations.

[10] = target: T1, BCRP (Homo sapiens, UniProt Q9UNQ0); assay: Inhibition of BCRP-mediated transport; type: in vitro ADME; conditions: at clinically relevant concentrations
T1 sequence (Q9UNQ0 1-655): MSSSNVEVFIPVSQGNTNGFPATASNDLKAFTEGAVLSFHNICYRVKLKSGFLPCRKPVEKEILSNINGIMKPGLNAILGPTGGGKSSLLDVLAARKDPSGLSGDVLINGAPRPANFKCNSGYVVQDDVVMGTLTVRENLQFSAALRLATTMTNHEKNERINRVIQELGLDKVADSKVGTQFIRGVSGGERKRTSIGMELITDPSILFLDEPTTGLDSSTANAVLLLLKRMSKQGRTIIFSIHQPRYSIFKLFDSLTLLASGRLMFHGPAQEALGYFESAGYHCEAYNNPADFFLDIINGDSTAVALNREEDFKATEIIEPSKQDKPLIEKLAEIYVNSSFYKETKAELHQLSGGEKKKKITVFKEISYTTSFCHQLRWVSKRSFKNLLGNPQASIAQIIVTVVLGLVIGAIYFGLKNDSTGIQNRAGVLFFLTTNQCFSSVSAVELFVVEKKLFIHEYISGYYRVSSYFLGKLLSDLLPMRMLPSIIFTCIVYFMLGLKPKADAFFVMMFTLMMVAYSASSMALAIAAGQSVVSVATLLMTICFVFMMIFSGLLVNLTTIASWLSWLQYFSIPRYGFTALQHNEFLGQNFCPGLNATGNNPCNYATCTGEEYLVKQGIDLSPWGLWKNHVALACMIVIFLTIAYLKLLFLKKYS
Text: as §1

[11] = target: BSEP (Homo sapiens, UniProt O95342); assay: Inhibition of BSEP-mediated transport; type: in vitro ADME; conditions: at clinically relevant concentrations
Text: as §1

CYP3A4, sequence (P08684 whole entry): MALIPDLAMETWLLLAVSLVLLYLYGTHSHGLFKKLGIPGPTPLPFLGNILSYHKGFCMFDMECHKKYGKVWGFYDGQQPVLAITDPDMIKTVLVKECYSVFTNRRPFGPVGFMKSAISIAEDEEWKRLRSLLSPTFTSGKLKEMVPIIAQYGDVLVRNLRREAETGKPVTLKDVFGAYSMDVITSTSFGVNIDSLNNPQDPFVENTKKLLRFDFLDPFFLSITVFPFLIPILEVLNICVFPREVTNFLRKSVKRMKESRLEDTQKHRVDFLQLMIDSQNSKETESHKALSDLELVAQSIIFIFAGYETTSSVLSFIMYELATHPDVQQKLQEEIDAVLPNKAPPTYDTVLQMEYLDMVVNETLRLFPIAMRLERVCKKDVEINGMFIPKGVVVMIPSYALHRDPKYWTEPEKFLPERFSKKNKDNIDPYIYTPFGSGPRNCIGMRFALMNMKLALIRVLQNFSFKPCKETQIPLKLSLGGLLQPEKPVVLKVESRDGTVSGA
BSEP, sequence (O95342 whole entry): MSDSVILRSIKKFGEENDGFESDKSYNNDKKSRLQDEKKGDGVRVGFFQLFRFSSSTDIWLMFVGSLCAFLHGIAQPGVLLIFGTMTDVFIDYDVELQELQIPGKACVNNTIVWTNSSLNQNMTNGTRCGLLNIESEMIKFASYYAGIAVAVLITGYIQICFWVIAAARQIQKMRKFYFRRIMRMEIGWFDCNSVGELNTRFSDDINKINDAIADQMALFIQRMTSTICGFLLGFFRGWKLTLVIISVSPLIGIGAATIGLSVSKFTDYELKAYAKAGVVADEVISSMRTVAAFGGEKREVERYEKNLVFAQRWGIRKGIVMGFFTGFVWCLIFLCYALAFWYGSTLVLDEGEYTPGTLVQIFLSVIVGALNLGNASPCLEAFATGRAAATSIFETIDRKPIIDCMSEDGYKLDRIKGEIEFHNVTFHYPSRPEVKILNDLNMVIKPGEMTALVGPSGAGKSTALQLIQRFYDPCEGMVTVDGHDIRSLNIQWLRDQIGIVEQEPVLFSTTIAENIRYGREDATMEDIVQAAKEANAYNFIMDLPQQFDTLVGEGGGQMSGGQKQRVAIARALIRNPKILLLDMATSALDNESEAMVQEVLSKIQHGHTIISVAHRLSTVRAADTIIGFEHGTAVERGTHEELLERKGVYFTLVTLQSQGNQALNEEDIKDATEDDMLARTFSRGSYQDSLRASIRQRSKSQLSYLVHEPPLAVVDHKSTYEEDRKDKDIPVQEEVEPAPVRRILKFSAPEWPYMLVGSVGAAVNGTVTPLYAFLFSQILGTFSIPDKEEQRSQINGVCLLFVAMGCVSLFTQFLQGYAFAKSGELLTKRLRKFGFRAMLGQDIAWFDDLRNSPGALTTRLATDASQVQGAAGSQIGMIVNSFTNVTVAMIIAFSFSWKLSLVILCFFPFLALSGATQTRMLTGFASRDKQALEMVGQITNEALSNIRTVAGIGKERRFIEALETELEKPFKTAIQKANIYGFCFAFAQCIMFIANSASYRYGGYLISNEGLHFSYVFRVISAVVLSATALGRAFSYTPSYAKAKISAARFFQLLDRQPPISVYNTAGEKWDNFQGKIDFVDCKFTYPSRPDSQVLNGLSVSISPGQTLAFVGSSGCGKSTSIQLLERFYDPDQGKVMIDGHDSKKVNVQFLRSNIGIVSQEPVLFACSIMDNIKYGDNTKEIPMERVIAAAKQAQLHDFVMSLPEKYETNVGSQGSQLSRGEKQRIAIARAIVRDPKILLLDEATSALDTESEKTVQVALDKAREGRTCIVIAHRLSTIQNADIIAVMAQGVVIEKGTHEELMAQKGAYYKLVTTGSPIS
P-gp, sequence (P08183 whole entry): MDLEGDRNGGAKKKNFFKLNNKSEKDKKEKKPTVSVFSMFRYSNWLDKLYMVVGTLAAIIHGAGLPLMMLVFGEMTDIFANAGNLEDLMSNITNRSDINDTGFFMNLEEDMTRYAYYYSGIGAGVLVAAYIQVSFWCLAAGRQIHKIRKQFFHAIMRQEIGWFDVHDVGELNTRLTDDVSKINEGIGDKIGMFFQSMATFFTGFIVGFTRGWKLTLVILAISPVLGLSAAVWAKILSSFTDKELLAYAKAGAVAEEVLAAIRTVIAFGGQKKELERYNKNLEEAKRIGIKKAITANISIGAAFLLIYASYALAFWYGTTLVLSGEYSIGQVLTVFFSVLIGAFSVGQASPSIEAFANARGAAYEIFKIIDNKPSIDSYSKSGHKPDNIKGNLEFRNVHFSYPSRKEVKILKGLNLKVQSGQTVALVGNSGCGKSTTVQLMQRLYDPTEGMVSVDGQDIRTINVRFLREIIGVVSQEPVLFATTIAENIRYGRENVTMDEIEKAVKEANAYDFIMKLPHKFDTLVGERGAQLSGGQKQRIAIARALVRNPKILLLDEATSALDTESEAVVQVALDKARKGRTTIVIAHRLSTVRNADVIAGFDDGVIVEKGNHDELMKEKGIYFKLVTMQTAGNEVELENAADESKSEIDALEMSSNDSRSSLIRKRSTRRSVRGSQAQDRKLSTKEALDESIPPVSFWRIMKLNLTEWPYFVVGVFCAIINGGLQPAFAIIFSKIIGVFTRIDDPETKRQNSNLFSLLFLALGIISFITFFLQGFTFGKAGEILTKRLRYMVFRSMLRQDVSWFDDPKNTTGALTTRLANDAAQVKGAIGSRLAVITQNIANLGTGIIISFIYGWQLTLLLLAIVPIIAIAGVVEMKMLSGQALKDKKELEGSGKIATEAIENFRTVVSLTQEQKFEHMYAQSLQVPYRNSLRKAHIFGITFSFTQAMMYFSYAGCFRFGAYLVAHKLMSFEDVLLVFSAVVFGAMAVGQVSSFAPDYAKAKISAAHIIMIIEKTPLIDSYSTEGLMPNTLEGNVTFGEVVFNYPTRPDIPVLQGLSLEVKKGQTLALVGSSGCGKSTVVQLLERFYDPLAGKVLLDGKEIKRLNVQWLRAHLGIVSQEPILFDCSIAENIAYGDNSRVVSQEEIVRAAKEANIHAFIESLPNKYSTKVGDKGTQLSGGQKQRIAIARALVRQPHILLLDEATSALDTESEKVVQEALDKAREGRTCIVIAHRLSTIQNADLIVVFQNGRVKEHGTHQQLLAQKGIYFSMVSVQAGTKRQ

SMILES: CC[C@H]1OC(=O)[C@H](C)[C@@H](O[C@H]2C[C@@](C)(OC)[C@@H](O)[C@H](C)O2)[C@H](C)[C@@H](O[C@@H]2O[C@H](C)C[C@H](N(C)C)[C@H]2O)[C@](C)(O)C[C@@H](C)C(=O)[C@H](C)[C@@H](O)[C@]1(C)O [Erythromycin]
- Increase of the AUC of everolimus [1]: 4.4 fold
- Increase of the Cmax of everolimus [1]: 2.0 fold

SMILES: CO[C@H]1C[C@@H]2CC[C@@H](C)[C@@](O)(O2)C(=O)C(=O)N2CCCC[C@H]2C(=O)O[C@H]([C@H](C)C[C@@H]2CC[C@@H](OCCO)[C@H](OC)C2)CC(=O)[C@H](C)/C=C(\C)[C@@H](O)[C@@H](OC)C(=O)[C@H](C)C[C@H](C)/C=C/C=C/C=C/1C [Everolimus]
- AUC(0-inf) [2]: 216 ng·h/mL
- AUC(0-t) [2]: 95 ng·h/mL
- Cmax [2]: 18 ng/mL
- Increase in midazolam AUC0-inf [3]: 30%
- Increase in midazolam Cmax [3]: 25%
- Everolimus AUC24, geometric mean±SD ([4]; 2.5 mg of everolimus): 570 ± 195 ng·h/mL
- Everolimus Cmaxss, geometric mean±SD ([4]; 2.5 mg of everolimus): 62.1 ± 13.1 ng/mL
- Everolimus Cminss, geometric mean±SD ([4]; 2.5 mg of everolimus): 13.6 ± 9.0 ng/mL
- Everolimus AUC24, geometric mean±SD ([4]; 5 mg of everolimus): 716 ± 123 ng·h/mL
- Everolimus Cmaxss, geometric mean±SD ([4]; 5 mg of everolimus): 114 ± 36 ng/mL
- Everolimus Cminss, geometric mean±SD ([4]; 5 mg of everolimus): 17.4 ± 4.5 ng/mL
- Everolimus tmax, median (range) ([4]; 5 mg of everolimus): 48 min
- Everolimus AUC24 ([4]; 10 mg of everolimus): 1470 ng·h/mL
- Everolimus Cmaxss ([4]; 10 mg of everolimus): 139 ng/mL
- Everolimus Cminss ([4]; 10 mg of everolimus): 16.5 ng/mL
- Time to steady-state [5]: ≤ 2 weeks

SMILES: C=C(C)[C@@H]1CCC(C)=C[C@H]1c1c(O)cc(CCCCC)cc1O [CBD, Cannabidiol]
- Effect on orally dosed midazolam PK parameters [6]: no clinically significant effect
- AUC(0-t) ([7]; 5 mg/kg/day): 241 ng·h/mL
- AUC(0-t) ([7]; 10 mg/kg/day): 722 ng·h/mL
- AUC(0-t) ([7]; 20 mg/kg/day): 963 ng·h/mL
- AUC ([7]; 25 mg/kg/day): 2520 ng·h/mL
- AUC ([7]; 50 mg/kg/day): 2730 ng·h/mL
- Adverse effects caused by elevated levels [8]: transaminase elevation, rash, somnolence, sedation, lethargy, diarrhea, pyrexia, weight decreased, nasopharyngitis, irritability, oropharyngeal pain, and decreased appetite

SMILES: C=C(C)[C@@H]1CCC(C(=O)O)=C[C@H]1c1c(O)cc(CCCCC)cc1O [7-COOH-CBD, 7-carboxy-cannabidiol]
- P-gp substrate status [9]: substrate for P-gp
- Inhibition of transport mediated via BCRP [10]: inhibitor
- Inhibition of transport mediated via BSEP [11]: inhibitor

SMILES: CC(=O)N1CCN(c2ccc(OCC3COC(Cn4ccnc4)(c4ccc(Cl)cc4Cl)O3)cc2)CC1 (stereo not drawn) [ketoconazole]
- Increase of the AUC of everolimus [1]: 15 fold
- Increase of the Cmax of everolimus [1]: 3.9 fold
